Source: PMC10579241, “Impact of trifluoromethyl and sulfonyl groups on the biological activity of novel aryl-urea derivatives: synthesis, in-vitro, in-silico and SAR studies” (Scientific Reports, 2023)
≈ marks a conversion by molar mass, not a printed value. Read-outs that look alike come from different tables or passages of the source. Marks after values point to notes of the source that are not given here.

Legend:
PC3 [1] = experiment: DNA damage, comet assay, PC3; format: cell-based, human
Escherichia coli = experiment: MIC by serial dilution (agar wells), E. coli; format: cell-based
FASN = experiment: qRT-PCR, FASN in HCT116 cells; format: cell-based, human; settings: versus negative samples
PALB2 = experiment: qRT-PCR, PALB2 in PACA2 cells; format: cell-based, human; settings: versus negative untreated sample
TP53 = experiment: qRT-PCR, TP53 in HCT116 cells; format: cell-based, human; settings: versus negative samples
Procedure: RNA was extracted from pancreas, prostate, lung and liver cell lines using a total RNA purification kit (Qiagen, Hilden, Germany) according to the manufacturer's instructions. An aliquot of RNA was diluted in RNase-free water to estimate RNA quantity. Aliquots were used immediately for reverse transcription (RT). cDNA synthesis was performed on extracted RNA, which was treated with DNase (Invitrogen, Germany) to remove any possible DNA contamination. The DNase-treated RNA was reverse transcribed into first-strand cDNA using the RevertAid First Strand cDNA Synthesis kit (Fermantas) according to the manufacturer's instructions. Determination of the pancreas, prostate, lung and liver cell line cDNA copy number was carried out using StepOne™ Real-Time PCR System from Applied Biosystems (Thermo Fisher Scientific, Waltham, MA USA). Gene expressions were detected by real-time PCR, which was performed using the Rotor-Gene Q system (Qiagen Company). A 25 µL reaction mixture consisted of 12.5 µL SYBR® Premix Ex TaqTM (TaKaRa, Biotech. Co. Ltd.), 0.5 µL of each primer (10 PMole) (Table 1), 1 µL cDNA (50 ng) and 10.5 µL RNase free water. The optimum amplification conditions were chosen empirically according to each tested gene. Generally, the amplification conditions include initial incubation (95.0 °C for 3 min), then 40 cycles of amplification with denaturation (95.0 °C for 15 s), annealing (55.0 °C for 30 s) and extension (72.0 °C for 30 s) steps then 71 cycles which started at 60.0 °C and then increased about 0.5 °C every 10 s up to 95.0 °C. Mean cycle threshold (Ct) values of triplicate samples are used for analysis. The Ct value indicates the fractional cycle number at which the amount of amplified target reaches a fixed threshold. Data from real-time PCR were analyzed using 2^−∆∆Ct method[38]–[40]. Data were represented as the fold change in target gene expression normalized to a House-Keeping gene (HKG) and relative to the control. β-actin was used as a HKG to normalize input RNA amount, RNA quality and reverse transcription efficiency.

PACA2 [2] = experiment: DNA fragmentation assay, PACA2; format: cell-based, human
prostate cancer (PC3) = experiment: cells; format: cell-based; settings: Homo sapiens, 48 h
PACA2 [3] = experiment: DNA damage, comet assay, PACA2; format: cell-based, human
skin cancer (A431) = experiment: cells; format: cell-based; settings: Homo sapiens, A-431, 100 μg/mL, 48 h
BRCA2 = experiment: qRT-PCR, BRCA2 in PC3 cells; format: cell-based, human; settings: versus negative samples
colon cancer (HCT116) = experiment: cells; format: cell-based; settings: Homo sapiens
HCT116 [4] = experiment: DNA fragmentation assay, HCT116; format: cell-based, human
Candida albicans = experiment: MIC by serial dilution (agar wells), C. albicans; format: cell-based
PC3 [5] = experiment: DNA fragmentation assay, PC3; format: cell-based, human
in vitro = format: cell-based; settings: human, BJ1 normal skin fibroblast cells, 100 μg/mL
[6] = system: normal skin fibroblast cell line (BJ1); experiment: cells; format: cell-based; settings: Homo sapiens, Skin fibroblast, MTT, 48 h
Bacillus mycoides [7] = experiment: microbe, parasite or virus in culture; format: cell-based
HCT116 [8] = experiment: DNA damage, comet assay, HCT116; format: cell-based, human
CDKN2A = experiment: qRT-PCR, CDKN2A in PACA2 cells; format: cell-based, human; settings: versus negative untreated sample
Bacillus mycoides [9] = experiment: microbe, parasite or virus in culture; format: cell-based; remark: listed apart in the source
[10] = 0.00488 mg/mL, 150 µL in DMSO, 15 mm agar well
[11] = 0.00975 mg/mL, 150 µL in DMSO, 15 mm agar well
[12] = 0.0195 mg/mL, 150 µL in DMSO, 15 mm agar well
[13] = 0.0391 mg/mL, 150 µL in DMSO, 15 mm agar well
[14] = 0.0781 mg/mL, 150 µL in DMSO, 15 mm agar well
[15] = 0.1563 mg/mL, 150 µL in DMSO, 15 mm agar well
[16] = 0.3125 mg/mL, 150 µL in DMSO, 15 mm agar well
[17] = 0.625 mg/mL, 150 µL in DMSO, 15 mm agar well
[18] = 1.25 mg/mL, 150 µL in DMSO, 15 mm agar well
[19] = 2.50 mg/mL, 150 µL in DMSO, 15 mm agar well
[20] = 5.00 mg/mL, 150 µL in DMSO, 15 mm agar well
[21] = 10.0 mg/mL, 150 µL in DMSO, 15 mm agar well
[22] = read-out: Minimum inhibition concentration (MIC)

For `Cc1ccc(S(=O)(=O)NC(=O)Nc2ccc(C(F)(F)F)cc2)cc1` [Compound 7, 4-Methyl-N-[(4-{trifluoromethyl}phenyl)carbamoyl]benzenesulfonamide], the “DNA damaged cells % (mean ± SEM)” value (PC3 [1]) was 25.78 ± 1.44^a %, the “Class 0 (no tail), number of cells” value (PC3 [1]; of 400 cells analyzed) was 297 and the “Class 1 (tail length < diameter of nucleus), number of cells” value (PC3 [1]; of 400 cells analyzed) was 38. The “Class 2 (tail length between 1 and 2 × the diameter of nucleus), number of cells” value (PC3 [1]; of 400 cells analyzed) was 36, the “Class 3 (tail length > 2 × the diameter of nucleus), number of cells” value (PC3 [1]; of 400 cells analyzed) was 29 and the “No. of cells, Comets” value (PC3 [1]; of 400 cells analyzed) was 103. For the same molecule, the zone of inhibition at 4.88 µg/mL (Escherichia coli; [10]) was 15 mm, the zone of inhibition at 9.75 µg/mL (Escherichia coli; [11]) was 16 mm and the zone of inhibition at 19.5 µg/mL (Escherichia coli; [12]) was 17 mm. It also gave a zone of inhibition at 39.1 µg/mL (Escherichia coli; [13]) of 18 mm, a zone of inhibition at 78.1 µg/mL (Escherichia coli; [14]) of 19 mm and a zone of inhibition at 156.3 µg/mL (Escherichia coli; [15]) of 20 mm. It also gave a zone of inhibition at 312.5 µg/mL (Escherichia coli; [16]) of 22 mm, a zone of inhibition at 625 µg/mL (Escherichia coli; [17]) of 23 mm and a zone of inhibition at 1250 µg/mL (Escherichia coli; [18]) of 25 mm. For the same molecule, the zone of inhibition at 2500 µg/mL (Escherichia coli; [19]) was 26 mm, the zone of inhibition at 5000 µg/mL (Escherichia coli; [20]) was 27 mm and the zone of inhibition at 10000 µg/mL (Escherichia coli; [21]) was 28 mm. For the same molecule, the MIC (Escherichia coli; [22]) was 4.88 µg/mL (≈ 13.6 µM), the “FASN gene expression level” value (FASN) was “suppression” and the “PALB2 gene expression level” value (PALB2) was “significantly reduced”. For the same molecule, the “TP53 gene expression level” value (TP53) was “suppression”, the “Change (DNA fragmentation versus untreated cells)” value (from here on “Change”) (PACA2 [2]) was 23.10 and the “DNA fragmentation % M ± SEM” value (PACA2 [2]; IC50 concentration, 24 h) was 35.2 ± 0.68^a %. The Inhibition (PACA2 [2]; doxorubicin = 0.0) was 28.33, the mortality at 100 µg/mL (prostate cancer (PC3); 100 μg/mL) was 100% and the IC50 (prostate cancer (PC3); MTT) was 91.3 ± 0.28 µM. For the same molecule, the “DNA damaged cells % (mean ± SEM)” value (PACA2 [3]) was 23.52 ± 0.65^a %, the “Class 0 (no tail), number of cells” value (PACA2 [3]; of 400 cells analyzed) was 306 and the “Class 1 (tail length < diameter of nucleus), number of cells” value (PACA2 [3]; of 400 cells analyzed) was 35. For the same molecule, the “Class 2 (tail length between 1 and 2 × the diameter of nucleus), number of cells” value (PACA2 [3]; of 400 cells analyzed) was 28, the “Class 3 (tail length > 2 × the diameter of nucleus), number of cells” value (PACA2 [3]; of 400 cells analyzed) was 31 and the “No. of cells, Comets” value (PACA2 [3]; of 400 cells analyzed) was 94. The mortality at 100 µg/mL (skin cancer (A431)) was 55.4 ± 1.25%, the “BRCA2 gene expression level” value (BRCA2) was “decreased significantly” and the mortality at 100 µg/mL (colon cancer (HCT116); HCT-116, 48 h, 100 μg/mL) was 100%. The IC50 (colon cancer (HCT116); HCT-116, MTT, 48 h) was 93.5 ± 1.4 µM, the “Change” value (HCT116 [4]) was 26.20 and the “DNA fragmentation % M ± SEM” value (HCT116 [4]; IC50 concentration, 24 h) was 37.1 ± 0.52^a %. It also gave an Inhibition (HCT116 [4]; doxorubicin = 0.00) of 24.76, a zone of inhibition at 4.88 µg/mL (Candida albicans; [10]) of 16 mm and a zone of inhibition at 9.75 µg/mL (Candida albicans; [11]) of 17 mm. It also gave a zone of inhibition at 19.5 µg/mL (Candida albicans; [12]) of 17 mm, a zone of inhibition at 39.1 µg/mL (Candida albicans; [13]) of 17 mm and a zone of inhibition at 78.1 µg/mL (Candida albicans; [14]) of 17 mm. It also gave a zone of inhibition at 156.3 µg/mL (Candida albicans; [15]) of 18 mm, a zone of inhibition at 312.5 µg/mL (Candida albicans; [16]) of 19 mm and a zone of inhibition at 625 µg/mL (Candida albicans; [17]) of 22 mm. For the same molecule, the zone of inhibition at 1250 µg/mL (Candida albicans; [18]) was 25 mm, the zone of inhibition at 2500 µg/mL (Candida albicans; [19]) was 27 mm and the zone of inhibition at 5000 µg/mL (Candida albicans; [20]) was 28 mm. For the same molecule, the zone of inhibition at 10000 µg/mL (Candida albicans; [21]) was 29 mm, the MIC (Candida albicans; [22]) was 4.88 µg/mL (≈ 13.6 µM) and the “Change” value (PC3 [5]) was 24.5. For the same molecule, the “DNA fragmentation % M ± SEM” value (PC3 [5]; IC50 concentration, 24 h) was 36.1 ± 0.60^a %, the Inhibition (PC3 [5]; doxorubicin = 0.0) was 21.89 and the mortality at 48 h, 100 µg/mL (in vitro) was 12.3 ± 1.12%. For the same molecule, the IC50 [6] was 48.8 ± 0.26 µM, the Inhibition zones diameter (Bacillus mycoides [7]; B. mycoides, 200 μL of 10 mg/mL in DMSO in 15 mm holes, overnight 37 °C) was 36 ± 1.25 mm and the zone of inhibition at 10000 µg/mL (Bacillus mycoides [7]; Bacillus mycoides, read-out: Inhibition zones diameter) was 36 mm. For the same molecule, the “DNA damaged cells % (mean ± SEM)” value (HCT116 [8]) was 25.56 ± 0.66^a %, the “Class 0 (no tail), number of cells” value (HCT116 [8]; of 400 cells analyzed) was 298 and the “Class 1 (tail length < diameter of nucleus), number of cells” value (HCT116 [8]; of 400 cells analyzed) was 29. The “Class 2 (tail length between 1 and 2 × the diameter of nucleus), number of cells” value (HCT116 [8]; of 400 cells analyzed) was 38, the “Class 3 (tail length > 2 × the diameter of nucleus), number of cells” value (HCT116 [8]; of 400 cells analyzed) was 35 and the “No. of cells, Comets” value (HCT116 [8]; of 400 cells analyzed) was 102. The “CDKN2A gene expression level” value (CDKN2A) was “significantly reduced”, the zone of inhibition at 4.88 µg/mL (Bacillus mycoides [9]; read-out: Inhibition zone) was 0 mm and the zone of inhibition at 9.75 µg/mL (Bacillus mycoides [9]; read-out: Inhibition zone) was 15 mm. The zone of inhibition at 19.5 µg/mL (Bacillus mycoides [9]; read-out: Inhibition zone) was 15 mm, the zone of inhibition at 39.1 µg/mL (Bacillus mycoides [9]; read-out: Inhibition zone) was 16 mm and the zone of inhibition at 78.1 µg/mL (Bacillus mycoides [9]; read-out: Inhibition zone) was 16 mm. The zone of inhibition at 156.3 µg/mL (Bacillus mycoides [9]; read-out: Inhibition zone) was 18 mm, the zone of inhibition at 312.5 µg/mL (Bacillus mycoides [9]; read-out: Inhibition zone) was 20 mm and the zone of inhibition at 625 µg/mL (Bacillus mycoides [9]; read-out: Inhibition zone) was 24 mm. For the same molecule, the zone of inhibition at 1250 µg/mL (Bacillus mycoides [9]; read-out: Inhibition zone) was 26 mm, the zone of inhibition at 2500 µg/mL (Bacillus mycoides [9]; read-out: Inhibition zone) was 27 mm and the zone of inhibition at 5000 µg/mL (Bacillus mycoides [9]; read-out: Inhibition zone) was 28 mm. For the same molecule, the zone of inhibition at 10000 µg/mL (Bacillus mycoides [9]; read-out: Inhibition zone) was 29 mm and the MIC (Bacillus mycoides [9]; [22]) was 9.75 µg/mL (≈ 27.2 µM).
